# Experimental data published in patent publication US20080300299A1, “Application of Eriocalyxin B in the Manufacture of Medicaments For Treating Leukemia” (Rui Jin Hospital Affiliated to Shanghai Second Medical …, priority 2005, published 2008).
# “And” between values parts separate entries of the source, which are not always exact repeats. Equal entries are not always repeated.
# What was measured:
# Kasumi-1 cells [1] = assay: Mitochondrial transmembrane potential (Rh123 flow cytometry); type: cell-based, human
# Experimental: (§1) (IV) Flow cytometric for annexin-V, cell cycle, mitochondrial transmembrane potential and reactive oxygen species (ROS) generation: Cell apoptosis was analyzed using an ApoAlert Annexin V-FITC Apoptosis kit (BD). In the process of analyzing the cell cycle, the cells were fixed overnight in methanol at −20° C., followed by treatment of Tris-HCl buffer (pH 7.4) comprising 1% RNase, 50 μg/ml PI staining. In the detection of mitochondrial transmembrane potential, the cells were washed with PBS, incubated at 37° C. and with […] Rh123 for 30 minutes, and then staining with 50 μg/ml PI. DCFH-DA was used to detect ROS levels, thus the cells were washed with PBS, and incubated at 37° C. and with […] DCFH-DA for 30 minutes. Fluorescence intensity was measured by flow cytometry.
# Kasumi-1 cells [2] = assay: ROS level flow cytometry; type: cell-based, human
# Experimental: as §1
# Bcl-2 = assay: Western blot and RT-PCR of Bcl-2 in Kasumi-1 cells; type: cell-based, human; conditions: EriB 24 and 48 hours
# Experimental: (§2) (VII) Western Blot analysis: lysing 5×10^6 cells with 200 μl Laemmli lysis buffer (0.5M Tris-HCl, pH 6.8, 2 mM EDTA, 10% glycerol, 2% SDS and 5% β-mercaptoethanol). Protein lysate (20 μg) was used on 10% polyacrylamide gel electrophoresis, and then transferred to nitrocellulose membranes. Nitrocellulose membranes were blocked with TBS/0.05% Tween 20 5% skim (nonfat) milk, and afterwards, incubated with primary antibody for two hours at room temperature, and incubated with horseradish peroxidase labeled IgG for one hour. The Immunocomplexes were detected with chemiluminescence horseradish peroxidase detection kit. The signal intensities of the respective bands were analyzed with Quantity One version 4.1.1 software.
# (§3) (IX) Semi-quantitative reverse transcription-PCR (RT-PCR): the total RNA was extracted using Trizol (Invitrogen). Random hexamers and Superscript II (Invitrogen) ART were used for reverse transcribed into cDNA. The present invention utilized the following primers: […]
# NF-κB [3] = assay: NF-κB luciferase report assay in Kasumi-1 cells; type: cell-based, human; conditions: pre-treatment with EriB for one hour, then TNF-α four hours
# Experimental: (§4) (X) Luciferase report assay: Kasumi-1 cells were resuspended in cultured medium, added the gene vector [10 μg, NF-κB-mediated luciferase reporter plasmid or pAP1-luc (Clontech), and 2 μg of β-galactosidase enzyme expression plasmid for correcting cell transfection efficiency of the CMV-mediated. Cell transfection conditions were: 1000V, 25 μF, and the instrument came from the Bio-Rad Laboratories, Inc. Transfections after 36 hours, the cells were treated with EriB and/or TNFα, and then the cells were lysed. Luciferase activity was measured by lumat LB 9507 tube luminometer (EG&G Berthold). Cell lysates were mixed with 2×β-half-galactosidase reaction reagents, after incubated for one hour at 37° C., the termination of reaction by adding 1 M Na2CO3. The β-galactosidase enzyme absorbance values were measured at 420 nm by spectrophotometer.
# NF-κB (P65) = assay: Immunofluorescence of P65 nuclear translocation in Kasumi-1 cells; type: cell-based, human; conditions: pretreatment with EriB for one hour, 100 ng/ml TNF-α four hours
# Experimental: (VI) Immunofluorescence: the cells were fixed in methanol for five minutes at −20° C., after being washed with PBS, treated by 0.5% Triton-X-permeability, blocked with 1% BSA, and incubated with anti-P65 antibody at room temperature for one hour; after being washed again with PBS and incubated with the fluorescent-label IgG at room temperature for 30 minutes. The cells were incubated with Hochest 33258 for five minutes later, and observations were proceeded under the fluorescent microscope.
# Kasumi-1 cells [4] = assay: Annexin V-FITC/PI apoptosis flow cytometry; type: cell-based, human; conditions: 0.5 μM EriB
# Experimental: as §1
# Bax = assay: Western blot and RT-PCR of Bax in Kasumi-1 cells; type: cell-based, human; conditions: EriB 24 and 48 hours
# Experimental: as §2, §3
# NF-κB [5] = assay: Gel electrophoresis shift assay (EMSA) of NF-κB DNA binding; type: cell-based, human; conditions: EriB added one hour before TNF-α
# Experimental: (XI) Gel electrophoresis shift assay: nucleoprotein extracts of Kasumi-1 cells were quantitatively determined by using Coomassie plus reagent (Pierce). Nucleoprotein (10 μg) and ^32P marked double-stranded NF-κB (5′-[…]-3′) were sequentially incubated, and then […] using 4% of non-denaturing PAGE gel; the marked bands were detected by using autoradiography.
# [6] = system: primary leukemia cells from patients with t(8;21); assay: Growth inhibition of primary leukemia cells (trypan blue exclusion); type: cell-based, human; conditions: 0.1 and 0.25 μM EriB, all five patients
# Description: (§5) (II) Cell culture, cell survival and cell morphology: the present invention utilized the following human cell lines: AML leukemia with t(8;21) chromosomal translocation Kasumi-1 cell lines, which is also known as acute myeloid leukemia comprising AML1-ETO fusion gene; acute promyelocytic leukemia NB4, NB4/R1 and NB4/R2 cell lines, and acute myeloid leukemia U937 cell lines; Burkitt's lymphoma (Raji and Daudi) cell lines; T-cell acute lymphoblastic leukemia (Jurkat) cell lines. The present invention studied by collecting primary leukemia cells from five AML patients with t(8;21). The diagnoses of patients were established on the bases of morphological examination, cytogenetics study detection of t(8;21) chromosomal translocation, and RT-PCR detection of AML1-ETO fusion protein. Leukemia cells were prepared in the following conditions: separated with Lymphocyte Separation Medium, further isolated and cultured in RPMI-1640 medium (Gibco/BRL), in addition, added 10% FBS (PAA) in 5% CO2-95% air and saturated humidity, and at 37° C. In each experiment, cell inoculation density is 2×10^5/ml. The survival rate of cells was accessed using trypan blue dye-exclusion experiments. Cell observations were done by using the Wright's staining method.
# [7] = system: MigA/Etr cells expressing C-terminal truncated AML1-ETO; assay: C57 murine model of t(8;21) leukemia; type: in vivo, mice; conditions: for median survival time: control 25 days, P<0.001
# Experimental: (XII) Leukemia murine model: female C57 mice and nude mice (5-6 weeks) were bred in special pathogen-free environment. C57 mice received 400 cGy from a high-energy linear accelerator at the dose rate of 100 cGy per minute. After 24 hours, the C57 mice were injected with 3×10^6 Mig/Etr cells expressing carbon-terminal truncated AML1-ETO of 0.2 ml PBS via tail vein intravenous injection. Treatments (12 mice in each group) were started five days after injection of leukemia cells. The control group and the EriB treated group, all respectively receive EriB (1.25, or 2.5 mg/kg, intraperitoneal injection for two weeks) and diluents (1% Pluronic F68).
# EriB efficacy in the treatment of murine models. C57 mice were irradiated by lethal dose (LD)50 and injected via tail vein intravenously with 3×10^6 MigA/Etr cells expressing of C-terminal truncated AML1-ETO (day 0). Beginning on day 5, intraperitoneal injection of EriB ([…]) for two weeks. The overall survival rate was measured and calculated started from day 0 to the date of death. All the mice eventually develop symptoms of anemia and difficulty breathing, and also the occurrence of a large number of primitive blood cells in the peripheral blood.
# [8] = system: human malignant hematopoietic cell; assay: MTT cell growth inhibition, whole panel; type: cell-based; conditions: all cell lines tested
# Description: as §5, with “The survival rate of cells was accessed using trypan blue dye-exclusion experiments. Cell observations were done by using the Wright's staining method.” left out
# (§6) (III) MTT experiment: cells were treated with EriB at concentrations of 0.1, 0.25, 0.5, 1, 2, 4, 6, 8 and 10 μM in a 96-hole plate. After 72 hours, 0.1 mg MTT was added to each hole, incubated at 37° C. for four hours later, absorbance values were measured at 570 nm by spectrophotometer.
# ERK1/2 = assay: Western blot of phosphorylated ERK1/2 in Kasumi-1 cells; type: cell-based, human; conditions: EriB 12 and 24 hours
# Experimental: as §2
# caspase-3 = assay: Western blot of caspase-3 activation and PARP; type: cell-based, human; conditions: EriB; Kasumi-1, NB4 and NB4/R2 cells
# Kasumi-1 cells [9] = assay: Cell cycle analysis (nuclear DNA content, PI); type: cell-based, human; conditions: 0.25 μM EriB for 6, 12, 24 and 48 hours
# Experimental: as §1
# Bcl-XL = assay: Western blot and RT-PCR of Bcl-XL in Kasumi-1 cells; type: cell-based, human; conditions: EriB 24 and 48 hours
# Experimental: as §2, §3
# AP-1 = AP-1 luciferase report assay in Kasumi-1 cells; type: cell-based, human; conditions: 0.5 μM EriB for 4 hours
# Experimental: as §4
# Kasumi-1 cells [10] = assay: Cell survival (trypan blue dye-exclusion); type: cell-based, human; conditions: 48 hours
# Description: as §5
# Kasumi-1 cells [11] = assay: Differentiation associated antigen expression; type: cell-based, human; conditions: 0.1 and 0.25 μM EriB for seven days
# NB4/R2 cells = assay: MTT cell growth inhibition; type: cell-based, human; conditions: 72 hours
# Description: as §5, §6
# U937 cells = assay: MTT cell growth inhibition; type: cell-based, human; conditions: 72 hours
# Description: as §5, §6
# NB4 cells = assay: MTT cell growth inhibition; type: cell-based, human; conditions: 72 hours
# Description: as §5, §6
# Daudi cells = assay: MTT cell growth inhibition; type: cell-based, human; conditions: 72 hours
# Description: as §5, §6
# Jurkat cells = assay: MTT cell growth inhibition; type: cell-based, human; conditions: 72 hours
# Description: as §5, §6
# NB4/R1 cells = assay: MTT cell growth inhibition; type: cell-based, human; conditions: 72 hours
# Description: as §5, §6
# Raji cells = assay: MTT cell growth inhibition; type: cell-based, human; conditions: 72 hours
# Description: as §5, §6
# AML1-ETO fusion protein = assay: Western blot of AML1-ETO (anti-ETO antibody) in Kasumi-1 cells; type: cell-based, human; conditions: EriB 24 and 48 hours
# Experimental: as §2
# HL60 cells = assay: MTT cell growth inhibition; type: cell-based, human; conditions: 72 hours
# Experimental: as §6
# Kasumi-1 cells [12] = assay: Kasumi-1 xenograft tumor model in nude mice; type: in vivo; conditions: EriB 2.5 mg/kg intraperitoneal, day 10 to day 19; P<0.05
# Experimental: Another xenograft tumor model was established through subcutaneous injection in nude mice of 3×10^7 Kasumi-1 cells (day 0). The incubation period of tumor formation at the site of injection was about 8-12 days. Beginning from day 10, the mice were treated with EriB (2.5 mg/kg) by intraperitoneal injection only until day 19.
compound,measurement,setting,value
"O[C@H](CS)[C@H](O)CS (racemic) [DTT, dithiothreitol, reference compound]",effect on EriB-induced apoptosis (Rh123),Kasumi-1 cells [1]; 0.2 mM DTT with 0.5 μM EriB,completely inhibit
same,ROS level,Kasumi-1 cells [2]; 0.2 mM DTT and EriB jointly incubated,has not changed
"C=C1C(=O)[C@]23C[C@H]1CC[C@H]2[C@@]12CO[C@]3(O)[C@@H](O)[C@@H]1C(C)(C)C=CC2=O [EriB, Eriocalyxin B]",Bcl-2 protein and mRNA levels,Bcl-2,have decreased
same,base luciferase activity and TNF-α-induced NF-κB activity,NF-κB [3],have been blocked
same,TNF-α-induced P65 translocation into nucleus,NF-κB (P65),significantly prevent
same,annexin V-positive cells proportion,Kasumi-1 cells [4]; 48 hours,88.6%
same,Bax expression,Bax,have not changed significantly
same,"NF-κB activation (DNA binding, EMSA)",NF-κB [5],can block NF-κB activation
same,cell inhibition,[6],more than 60%
same,median survival time,[7]; EriB 1.25 mg/kg intraperitoneal for two weeks,28 days
same,median survival time,[7]; EriB 2.5 mg/kg intraperitoneal for two weeks,32 days
same,spleen size versus untreated mice,"[7]; EriB intraperitoneal, 20 days",obviously smaller
same,concentration that inhibits the growth of the cells,[8],0.2 to 2 µM
same,ERK1/2 phosphorylation level,ERK1/2,rapidly decreased
same,mitochondrial transmembrane potential,"Kasumi-1 cells [1]; EriB 24 and 48 hours, time and dose dependent",decreased significantly
same,caspase-3 activation,caspase-3,activated
same,proportion of sub-G1 cells,Kasumi-1 cells [9],higher proportion of sub-G1
same,Bcl-XL protein and mRNA levels,Bcl-XL,have decreased
same,cell level of ROS compared with untreated cells,Kasumi-1 cells [2]; 0.5 μM EriB alone for 2 hours,about two
same,AP-1 luciferase activity increase,AP-1,about three
same,cell death,Kasumi-1 cells [10]; 0.25 μM EriB,42.7±6.5%
same,cell death,Kasumi-1 cells [10]; 0.75 μM EriB,90.5±4.3%
same,"induction of differentiation (CD11b, CD13, CD14, CD33, CD34, CD64)",Kasumi-1 cells [11],did not induce differentiation
same,IC50,NB4/R2 cells,< 1 µM and 0.5 µM
same,IC50,U937 cells,1 µM
same,IC50,NB4 cells,< 1 µM and 0.5 µM
same,IC50,Daudi cells,> 1.5 µM
same,IC50,Jurkat cells,> 1.5 µM
same,IC50,NB4/R1 cells,< 1 µM and 1 µM
same,IC50,Raji cells,> 1.5 µM
same,AML1-ETO fusion protein level,AML1-ETO fusion protein,AML1-ETO degradation
same,IC50,HL60 cells,1 µM
same,tumor size versus control group,Kasumi-1 cells [12],significantly reduce tumor size
"COC(=O)CC[C@H](NC(=O)[C@H](CC(=O)OC)NC(=O)OCc1ccccc1)C(=O)N[C@H](C(=O)N[C@@H](CC(=O)OC)C(=O)CF)C(C)C [Z-DEVD-fmk, reference compound]",effect on rate of EriB-induced apoptosis (annexin V positive cell proportion),Kasumi-1 cells [4]; 40 μM Z-DEVD-fmk pre-treatment one hour,only partially reduced
